Reference: patent US20230174486A1, “NON-LYSOSOMAL GLUCOSYLCERAMIDASE INHIBITORS AND USES THEREOF” (ALECTOS THERAPEUTICS lNC., priority 2020, published 2023)

Tests used:
[1] = target: T1, human GBA2 (Homo sapiens, UniProt Q9HCG7); experiment: Inhibition of GBA2 in cell lysate (4-methylumbelliferone-β-D glucopyranoside substrate); type: biochemical; conditions: homogenate of HEK293T cells stably overexpressing human GBA2, pH 5.5, 37° C., GCase inhibitor present
T1 construct: cellular homogenate
T1 sequence (Q9HCG7 1-927): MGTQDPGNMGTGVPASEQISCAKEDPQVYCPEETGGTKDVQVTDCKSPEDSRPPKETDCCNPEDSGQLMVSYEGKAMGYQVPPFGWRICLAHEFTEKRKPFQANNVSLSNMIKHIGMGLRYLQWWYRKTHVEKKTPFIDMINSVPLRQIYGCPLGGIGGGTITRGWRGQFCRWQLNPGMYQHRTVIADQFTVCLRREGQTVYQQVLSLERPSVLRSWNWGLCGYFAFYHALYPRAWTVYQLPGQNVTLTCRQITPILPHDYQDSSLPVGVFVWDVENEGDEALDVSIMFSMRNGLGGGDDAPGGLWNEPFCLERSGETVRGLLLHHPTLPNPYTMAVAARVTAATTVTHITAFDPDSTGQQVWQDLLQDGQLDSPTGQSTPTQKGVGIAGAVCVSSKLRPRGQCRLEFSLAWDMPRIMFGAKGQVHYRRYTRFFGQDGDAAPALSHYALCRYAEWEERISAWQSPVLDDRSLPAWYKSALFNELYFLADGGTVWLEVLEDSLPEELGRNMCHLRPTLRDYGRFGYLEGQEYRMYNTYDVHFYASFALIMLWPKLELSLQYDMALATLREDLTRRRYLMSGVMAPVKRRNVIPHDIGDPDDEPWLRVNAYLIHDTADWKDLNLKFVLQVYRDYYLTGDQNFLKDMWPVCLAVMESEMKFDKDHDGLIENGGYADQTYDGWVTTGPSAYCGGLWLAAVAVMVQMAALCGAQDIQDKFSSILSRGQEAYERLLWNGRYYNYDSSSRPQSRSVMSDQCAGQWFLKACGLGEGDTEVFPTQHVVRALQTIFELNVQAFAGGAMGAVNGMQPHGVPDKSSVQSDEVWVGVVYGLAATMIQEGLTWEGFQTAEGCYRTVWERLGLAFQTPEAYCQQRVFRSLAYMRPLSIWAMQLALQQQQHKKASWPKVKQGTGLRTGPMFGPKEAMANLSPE
Protocol: Stable GBA2-expressing HEK293T cells were generated as follows. The PCR-amplified human GBA2 (GBA2 nucleotide accession number BC011363) using the following primers: Sense 5’---CGCAAATGGGCGGTAGGCGTG---3’ and antisense 5’---TAGTCAGCCATGGGGCGGAGA ---3’) was cloned into pLenti-GIII-CMV by ABM Inc. The correctness of the construct was verified by sequencing. Lentivirus particles containing GBA2 in the pLenti-GIII-CMV plasmid were prepared using a third Generation Virus Packaging Mix (ABM cat# LV053-G074) in HEK293T cells and supplied as a virus particle suspension. The virus suspension was used for infection of HEK293T cells. Cell populations stably expressing human GBA2 were selected using puromycin for several weeks as determined by activity assays and western blot.
Various concentrations of test compounds were prepared in DMSO and then diluted into buffer consisting of 100 mM citric acid, 200 mM disodium phosphate with 1% v/v C10E6, pH 5.5. Cellular homogenates (0.25 mg/mL) of the stable HEK293T-overexpressing GBA2 cell line were preincubated for 10 min on ice with an inhibitor of GCase (20 µM (6R,7R,8S)-8-ethyl-4-azaspiro[2.5]octane-6,7-diol). The reaction solution consisted of 20 µL of 750 µM 4-methylumbelliferone-β-D glucopyranoside in 5% DMSO in the same buffer, 20 µL of GBA2-cellular homogenate pre-treated with (6R,7R,8S)-8-ethyl-4-azaspiro[2.5]octane-6,7-diol and 20 µL of various concentrations of test compound in 10% DMSO in the same buffer. The final concentrations in the reaction were 0.083 mg/mL GBA2-cellular homogenate, 250 µM 4-methylumbelliferone-β-D glucopyranoside, and various concentrations of inhibitor. The inhibitor and GBA2-cellular homogenate were preincubated together for 5 min at 37° C. The reaction was initiated by addition of substrate and allowed to proceed for 20 min at 37° C. to assess GBA2 activity. Reactions were stopped by the addition of an equal volume (60 µL) of 0.5 M NaOH, 0.3 M glycine, pH 10.5. Fluorescence was measured on a Biotek Synergy H4 plate reader at wavelengths of 365 nm for excitation and 450 nm for emission. Incubations without added enzyme or added inhibitors were used to define no enzyme activity and maximal enzyme activity, respectively. IC50 values were determined by fitting the data to a log[inhibitor concentration] versus response curve using GraphPad Prism. IC50 values were calculated as the concentration of inhibitor required to inhibit GBA2 activity by 50%.

[2] = target: T2, human non-lysosomal glucosylceramidase (GBA2) (Homo sapiens, UniProt Q9HCG7); experiment: Binding specificity for GBA2 over other molecules (ratio of Ki or IC50 values); type: biochemical; conditions: qualitative statement, no values or other enzyme given
T2 sequence (Q9HCG7 1-927): T1 sequence (Q9HCG7 1-927)
Text: In some embodiments, one or more of the compounds according to the invention may specifically bind a GBA2. In alternative embodiments, one or more of the compounds according to the invention may specifically bind the active site of a GBA2. […] In alternative embodiments, one or more of the compounds according to the invention may specifically bind the human non-lysosomal glucosylceramidase (GBA2) over the human lysosomal glucosylceramidase (GCase) and/or the human cytosolic glucosylceramidase (GBA3). In alternative embodiments, one or more of the compounds according to the invention may specifically bind the human non-lysosomal glucosylceramidase (GBA2) over the human glucosylceramide synthase (GCS). In alternative embodiments, one or more of the compounds according to the invention may specifically bind the human non-lysosomal glucosylceramidase (GBA2) over an intestinal alpha-glucosidase, where the intestinal alpha-glucosidase may be a sucrase-isomaltase or a maltase-glucoamylase.

Row | SMILES | GBA2 IC50 [1] | binding specificity, Ki(other molecule)/Ki(GBA2) or IC50(other molecule)/IC50(GBA2) [2]
1 | C[C@@H](CN1C[C@H](O)[C@@H](O)[C@H](O)[C@H]1CO)c1ccccc1 (single isomer, unassigned) [Example 7] | ∗∗∗ | 
2 | C[C@H](CN1C[C@H](O)[C@@H](O)[C@H](O)[C@H]1CO)c1ccccc1 (single isomer, unassigned) [Example 8] | ∗∗∗ | enhanced binding specificity
3 | OC[C@@H]1[C@@H](O)[C@H](O)[C@@H](O)CN1CCc1ccccc1F [Example 1, (2R,3R,4R,5S)-1-(2-fluorophenethyl)-2-(hydroxymethyl)piperidine-3,4,5-triol] | ∗∗∗ | 
4 | OC[C@@H]1[C@@H](O)[C@H](O)[C@@H](O)CN1CCc1cccc(F)c1 [Example 2, (2R,3R,4R,5S)-1-(3-fluorophenethyl)-2-(hydroxymethyl)piperidine-3,4,5-triol] | ∗∗∗ | 
5 | OC[C@@H]1[C@@H](O)[C@H](O)[C@@H](O)CN1CCc1ccc(F)cc1 [Example 3, (2R,3R,4R,5S)-1-(4-fluorophenethyl)-2-(hydroxymethyl)piperidine-3,4,5-triol] | ∗∗∗ | 
6 | OC[C@@H]1[C@@H](O)[C@H](O)[C@@H](O)CN1CCc1c(F)cccc1F [Example 4, (2R,3R,4R,5S)-1-(2,6-difluorophenethyl)-2-(hydroxymethyl)piperidine-3,4,5-triol] | ∗∗∗ | enhanced binding specificity
7 | OC[C@@H]1[C@@H](O)[C@H](O)[C@@H](O)CN1CCc1cccc(C(F)(F)F)c1 [Example 5, (2R,3R,4R,5S)-2-(hydroxymethyl)-1-(3-(trifluoromethyl)phenethyl)piperidine-3,4,5-triol] | ∗∗∗ | 
8 | OC[C@@H]1[C@@H](O)[C@H](O)[C@@H](O)CN1CCc1ccc(C(F)(F)F)cc1 [Example 6, (2R,3R,4R,5S)-2-(hydroxymethyl)-1-(4-(trifluoromethyl)phenethyl)piperidine-3,4,5-triol] | ∗∗∗ | 
9 | OC[C@@H]1[C@@H](O)[C@H](O)[C@@H](O)CN1CCc1ccccn1 [Example 9, (2R,3R,4R,5S)-2-(hydroxymethyl)-1-(2-(pyridin-2-yl)ethyl)piperidine-3,4,5-triol] | ∗∗ | 
10 | OC[C@@H]1[C@@H](O)[C@H](O)[C@@H](O)CN1CCc1cccs1 [Example 10, (2R,3R,4R,5S)-2-(hydroxymethyl)-1-(2-(thiophen-2-yl)ethyl)piperidine-3,4,5-triol] | ∗∗∗ | 
11 | OC[C@@H]1[C@@H](O)[C@H](O)[C@@H](O)CN1CCc1ccsc1 [Example 11, (2R,3R,4R,5S)-2-(hydroxymethyl)-1-(2-(thiophen-3-yl)ethyl)piperidine-3,4,5-triol] | ∗∗∗ | 
12 | OC[C@H]1[C@@H](O)[C@H](O)[C@@H](O)CN1CC1CCCCC1 [Example 12, (2S,3R,4R,5S)-1-(cyclohexylmethyl)-2-(hydroxymethyl)piperidine-3,4,5-triol] | ∗∗∗ | enhanced binding specificity
13 | OC[C@H]1[C@@H](O)[C@H](O)[C@@H](O)CN1C[C@H]1CC[C@H](C(F)(F)F)CC1 [Example 13, (2S,3R,4R,5S)-2-(hydroxymethyl)-1-(((1r,4R)-4-(trifluoromethyl)cyclohexyl)methyl)piperidine-3,4,5-triol] | ∗∗∗ | enhanced binding specificity
14 | CC(C)(F)[C@H]1CC[C@@H](CN2C[C@H](O)[C@@H](O)[C@H](O)[C@@H]2CO)CC1 [Example 14, (2S,3R,4R,5S)-1-(((1s,4S)-4-(2-fluoropropan-2-yl)cyclohexyl)methyl)-2-(hydroxymethyl)piperidine-3,4,5-triol] | ∗∗∗ | enhanced binding specificity
15 | OC[C@H]1[C@@H](O)[C@H](O)[C@@H](O)CN1CC1Cc2ccccc2C1 [Example 15, (2S,3R,4R,5S)-1-((2,3-dihydro-1H-inden-2-yl)methyl)-2-(hydroxymethyl)piperidine-3,4,5-triol] | ∗∗∗ | enhanced binding specificity
16 | OC[C@H]1[C@@H](O)[C@H](O)[C@@H](O)CN1CCC1CCCCC1 [Example 16, (2S,3R,4R,5S)-1-(2-cyclohexylethyl)-2-(hydroxymethyl)piperidine-3,4,5-triol] | ∗∗∗ | enhanced binding specificity
17 | OC[C@H]1[C@@H](O)[C@H](O)[C@@H](O)CN1CCCC1CCCCC1 [Example 17, (2S,3R,4R,5S)-1-(3-cyclohexylpropyl)-2-(hydroxymethyl)piperidine-3,4,5-triol] | ∗∗∗ | 
18 | OC[C@H]1[C@@H](O)[C@H](O)[C@@H](O)CN1CCc1ccccc1F [Example 18, (2S,3R,4R,5S)-1-(2-fluorophenethyl)-2-(hydroxymethyl)piperidine-3,4,5-triol] | ∗∗∗ | 
19 | OC[C@H]1[C@@H](O)[C@H](O)[C@@H](O)CN1CCc1cccc(Cl)c1F [Example 19, (2S,3R,4R,5S)-1-(3-chloro-2-fluorophenethyl)-2-(hydroxymethyl)piperidine-3,4,5-triol] | ∗∗∗ | 
20 | OC[C@H]1[C@@H](O)[C@H](O)[C@@H](O)CN1CCc1ccc(-c2ccccc2)cc1 [Example 20, (2S,3R,4R,5S)-1-(2-([1,1′-biphenyl]-4-yl)ethyl)-2-(hydroxymethyl)piperidine-3,4,5-triol] | ∗∗∗ | enhanced binding specificity
21 | OC[C@H]1[C@@H](O)[C@H](O)[C@@H](O)CN1C[C@H]1CCN(c2nc(C(F)(F)F)cs2)C1 [Example 26, (2S,3R,4R,5S)-2-(hydroxymethyl)-1—(((R)—1-(4-(trifluoromethyl)thiazol-2-yl)pyrrolidin-3-yl)methyl)piperidine-3,4,5-triol] | ∗∗∗ | 
22 | OC[C@H]1[C@@H](O)[C@H](O)[C@@H](O)CN1C[C@H]1CCCN(c2nc(C(F)(F)F)cs2)C1 [Example 30, (2S,3R,4R,5S)-2-(hydroxymethyl)-1—(((R)—1-(4-(trifluoromethyl)thiazol-2-yl)piperidin-3-yl)methyl)piperidine-3,4,5-triol] | ∗∗∗ | 
